In patent US11192877B2, “3-(5-hydroxy-1-oxoisoindolin-2-yl)piperidine-2,6-dione derivatives and uses thereof” (Novartis AG, priority 2018, dated 2021):

The compounds below were run against IKZF2 (Helios) (Homo sapiens, UniProt Q96SW2+Q9UKS7) (assay: Prolabel quantification of IKZF2 protein levels in 293GT cells). Settings: 24 h, Pro-label assay, 293GT cells, 10 μM, read-out: IKZF2 % protein reduction at 10 μM, 24 h.
Format: cell-based

IKZF2 (Helios), sequence (Q9UKS7 whole entry): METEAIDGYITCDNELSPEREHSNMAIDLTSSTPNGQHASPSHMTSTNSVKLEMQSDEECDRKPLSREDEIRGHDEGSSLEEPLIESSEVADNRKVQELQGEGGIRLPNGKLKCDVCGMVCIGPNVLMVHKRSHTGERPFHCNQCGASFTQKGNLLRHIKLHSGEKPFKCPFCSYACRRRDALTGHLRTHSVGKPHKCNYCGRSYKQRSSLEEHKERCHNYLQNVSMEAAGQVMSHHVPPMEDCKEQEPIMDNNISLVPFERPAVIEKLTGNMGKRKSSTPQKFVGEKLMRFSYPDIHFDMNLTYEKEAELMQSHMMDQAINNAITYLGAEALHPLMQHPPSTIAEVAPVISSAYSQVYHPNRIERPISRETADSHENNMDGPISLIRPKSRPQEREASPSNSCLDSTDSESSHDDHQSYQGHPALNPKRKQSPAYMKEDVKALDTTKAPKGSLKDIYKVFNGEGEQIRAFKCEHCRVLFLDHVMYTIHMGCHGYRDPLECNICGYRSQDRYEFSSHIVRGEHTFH
IKZF2 (Helios), sequence (Q96SW2 whole entry): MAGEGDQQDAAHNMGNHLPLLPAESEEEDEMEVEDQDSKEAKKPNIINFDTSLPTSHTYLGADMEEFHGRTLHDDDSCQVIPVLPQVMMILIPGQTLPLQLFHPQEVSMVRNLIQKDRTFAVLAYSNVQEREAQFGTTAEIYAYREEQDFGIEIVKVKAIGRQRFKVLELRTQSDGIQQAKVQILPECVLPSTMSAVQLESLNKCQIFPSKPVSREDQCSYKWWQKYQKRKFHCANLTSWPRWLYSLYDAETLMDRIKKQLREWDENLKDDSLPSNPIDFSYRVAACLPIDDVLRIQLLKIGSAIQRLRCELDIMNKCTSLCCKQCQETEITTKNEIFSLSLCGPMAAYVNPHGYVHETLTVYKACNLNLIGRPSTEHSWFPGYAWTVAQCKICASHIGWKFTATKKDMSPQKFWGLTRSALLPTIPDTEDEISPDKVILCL
IKZF2 (Helios), sequence (Q16531 whole entry partner): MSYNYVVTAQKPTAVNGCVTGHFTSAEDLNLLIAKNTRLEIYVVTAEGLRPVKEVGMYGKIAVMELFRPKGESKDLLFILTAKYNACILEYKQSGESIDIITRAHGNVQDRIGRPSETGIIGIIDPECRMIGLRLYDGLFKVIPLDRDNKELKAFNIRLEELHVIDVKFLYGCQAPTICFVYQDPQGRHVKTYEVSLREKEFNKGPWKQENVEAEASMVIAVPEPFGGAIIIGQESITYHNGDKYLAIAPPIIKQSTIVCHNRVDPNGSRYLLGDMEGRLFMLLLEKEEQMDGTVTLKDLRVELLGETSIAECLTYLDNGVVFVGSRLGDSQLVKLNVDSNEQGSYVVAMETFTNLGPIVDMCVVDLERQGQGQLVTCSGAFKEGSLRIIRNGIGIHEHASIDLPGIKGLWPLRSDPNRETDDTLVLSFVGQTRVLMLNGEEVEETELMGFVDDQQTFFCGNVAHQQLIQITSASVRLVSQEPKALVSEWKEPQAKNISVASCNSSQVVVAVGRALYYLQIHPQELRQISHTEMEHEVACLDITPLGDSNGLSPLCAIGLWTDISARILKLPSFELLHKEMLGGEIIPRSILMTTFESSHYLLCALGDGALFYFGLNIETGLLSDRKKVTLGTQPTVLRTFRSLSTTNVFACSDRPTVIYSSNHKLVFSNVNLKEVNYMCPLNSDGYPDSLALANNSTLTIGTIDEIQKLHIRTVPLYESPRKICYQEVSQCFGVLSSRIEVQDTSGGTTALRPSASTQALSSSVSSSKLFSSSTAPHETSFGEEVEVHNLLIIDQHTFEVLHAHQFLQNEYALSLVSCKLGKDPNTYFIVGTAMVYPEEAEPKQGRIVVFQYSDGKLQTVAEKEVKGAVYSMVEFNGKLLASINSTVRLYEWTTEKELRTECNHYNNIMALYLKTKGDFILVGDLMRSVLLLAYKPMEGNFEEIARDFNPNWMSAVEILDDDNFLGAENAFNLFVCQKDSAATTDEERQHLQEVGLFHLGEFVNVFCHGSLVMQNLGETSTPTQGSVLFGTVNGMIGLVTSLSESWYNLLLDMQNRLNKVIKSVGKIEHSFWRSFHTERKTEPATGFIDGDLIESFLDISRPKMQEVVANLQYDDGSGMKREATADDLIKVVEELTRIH

Compound | IKZF2 % protein reduction at 10 µM [%]
O=C1CCC(N2Cc3cc(O[C@H]4CCCC[C@@H]4N4CC5(COC5)C4)ccc3C2=O)C(=O)N1 (stereo partly drawn) [I-74, 3-(5-(((1S,2S)-2-(2-oxa-6-azaspiro[3.3]heptan-6-yl)cyclohexyl)oxy)-1-oxoisoindolin-2-yl)piperidine-2,6-dione] | 58
O=C1CCC(N2Cc3cc(O[C@H]4CCCC[C@@H]4NCc4cccnc4)ccc3C2=O)C(=O)N1 (stereo partly drawn) [I-75, 3-(1-oxo-5-(((1S,2S)-2-((pyridin-3-ylmethyl)amino)cyclohexyl)oxy)isoindolin-2-yl)piperidine-2,6-dione] | 79
CC(C)n1cc(CN[C@H]2CCCC[C@@H]2Oc2ccc3c(c2)CN(C2CCC(=O)NC2=O)C3=O)cn1 (stereo partly drawn) [I-77, 3-(5-(((1S,2S)-2-(((1-isopropyl-1H-pyrazol-4-yl)methyl)amino)cyclohexyl)oxy)-1-oxoisoindolin-2-yl)piperidine-2,6-dione] | 86
CCN(C)[C@H]1CCCC[C@@H]1Oc1ccc2c(c1)CN(C1CCC(=O)NC1=O)C2=O (stereo partly drawn) [I-78, 3-(5-(((1S,2S)-2-(ethyl(methyl)amino)cyclohexyl)oxy)-1-oxoisoindolin-2-yl)piperidine-2,6-dione] | 50
CCN[C@H]1CCCC[C@@H]1Oc1ccc2c(c1)CN(C1CCC(=O)NC1=O)C2=O (stereo partly drawn) [I-79, 3-(5-(((1S,2S)-2-(ethylamino)cyclohexyl)oxy)-1-oxoisoindolin-2-yl)piperidine-2,6-dione] | 85
CN(C)[C@H]1CCCC[C@@H]1Oc1ccc2c(c1)CN(C1CCC(=O)NC1=O)C2=O (stereo partly drawn) [I-80, 3-(5-(((1S,2S)-2-(dimethylamino)cyclohexyl)oxy)-1-oxoisoindolin-2-yl)piperidine-2,6-dione] | 65
O=C1CCC(N2Cc3cc(O[C@H]4CCCC[C@@H]4NCC4COC4)ccc3C2=O)C(=O)N1 (stereo partly drawn) [I-81, 3-(5-(((1S,2S)-2-((oxetan-3-ylmethyl)amino)cyclohexyl)oxy)-1-oxoisoindolin-2-yl)piperidine-2,6-dione] | 85
O=C1CCC(N2Cc3cc(O[C@H]4CCCC[C@@H]4NCCO)ccc3C2=O)C(=O)N1 (stereo partly drawn) [I-82, 3-(5-(((1S,2S)-2-((2-hydroxyethyl)amino)cyclohexyl)oxy)-1-oxoisoindolin-2-yl)piperidine-2,6-dione] | 58
O=C1CCC(N2Cc3cc(O[C@H]4CCCC[C@@H]4N4CCCC4)ccc3C2=O)C(=O)N1 (stereo partly drawn) [I-83, 3-(1-oxo-5-(((1S,2S)-2-(pyrrolidin-1-yl)cyclohexyl)oxy)isoindolin-2-yl)piperidine-2,6-dione] | 86
O=C1CCC(N2Cc3cc(O[C@H]4CCCC[C@@H]4N4CCOCC4)ccc3C2=O)C(=O)N1 (stereo partly drawn) [I-84, 3-(5-(((1S,2S)-2-morpholinocyclohexyl)oxy)-1-oxoisoindolin-2-yl)piperidine-2,6-dione] | 35
O=C1CCC(N2Cc3cc(O[C@H]4CCCC[C@@H]4NCc4ccccn4)ccc3C2=O)C(=O)N1 (stereo partly drawn) [I-85, 3-(1-oxo-5-(((1S,2S)-2-((pyridin-2-ylmethyl)amino)cyclohexyl)oxy)isoindolin-2-yl)piperidine-2,6-dione] | 69
CC(C)(O)CCN[C@H]1CCCC[C@@H]1Oc1ccc2c(c1)CN(C1CCC(=O)NC1=O)C2=O (stereo partly drawn) [I-86, 3-(5-(((1S,2S)-2-((3-hydroxy-3-methylbutyl)amino)cyclohexyl)oxy)-1-oxoisoindolin-2-yl)piperidine-2,6-dione] | 76
CC1(CN[C@H]2CCCC[C@@H]2Oc2ccc3c(c2)CN(C2CCC(=O)NC2=O)C3=O)COC1 (stereo partly drawn) [I-87, 3-(5-(((1S,2S)-2-(((3-methyloxetan-3-yl)methyl)amino)cyclohexyl)oxy)-1-oxoisoindolin-2-yl)piperidine-2,6-dione] | 79
COC1(C)CCN([C@H]2CCCC[C@@H]2Oc2ccc3c(c2)CN(C2CCC(=O)NC2=O)C3=O)CC1 (stereo partly drawn) [I-88, 3-(5-(((1S,2S)-2-(4-methoxy-4-methylpiperidin-1-yl)cyclohexyl)oxy)-1-oxoisoindolin-2-yl)piperidine-2,6-dione] | 57
COC1CN([C@H]2CCCC[C@@H]2Oc2ccc3c(c2)CN(C2CCC(=O)NC2=O)C3=O)C1 (stereo partly drawn) [I-89, 3-(5-(((1S,2S)-2-(3-methoxyazetidin-1-yl)cyclohexyl)oxy)-1-oxoisoindolin-2-yl)piperidine-2,6-dione] | 82
COc1ccc(CN[C@H]2CCCC[C@@H]2Oc2ccc3c(c2)CN(C2CCC(=O)NC2=O)C3=O)nc1 (stereo partly drawn) [I-91, 3-(5-(((1S,2S)-2-(((5-methoxypyridin-2-yl)methyl)amino)cyclohexyl)oxy)-1-oxoisoindolin-2-yl)piperidine-2,6-dione] | 58

Compound | IKZF2 % protein reduction at 10 µM [%]
COc1ccc(CN[C@H]2CCCC[C@@H]2Oc2ccc3c(c2)CN(C2CCC(=O)NC2=O)C3=O)cn1 (stereo partly drawn) [I-92, 3-(5-(((1S,2S)-2-(((6-methoxypyridin-3-yl)methyl)amino)cyclohexyl)oxy)-1-oxoisoindolin-2-yl)piperidine-2,6-dione] | 60
CC(C)(O)CN[C@H]1CCCC[C@@H]1Oc1ccc2c(c1)CN(C1CCC(=O)NC1=O)C2=O (stereo partly drawn) [I-93, 3-(5-(((1S,2S)-2-((2-hydroxy-2-methylpropyl)amino)cyclohexyl)oxy)-1-oxoisoindolin-2-yl)piperidine-2,6-dione] | 60
CC1(C#N)CC(CNC2CCCCC2Oc2ccc3c(c2)CN(C2CCC(=O)NC2=O)C3=O)C1 [I-95, (1R,3s)-3-((((1S,2S)-2-((2-(2,6-dioxopiperidin-3-yl)-1-oxoisoindolin-5-yl)oxy)cyclohexyl)amino)methyl)-1-methylcyclobutane-1-carbonitrile] | 84
O=C1CCC(N2Cc3cc(O[C@H]4CCC[C@@H]4N4CCC(O)CC4)ccc3C2=O)C(=O)N1 (stereo partly drawn) [I-96, 3-(5-(((1S,2S)-2-(4-hydroxypiperidin-1-yl)cyclopentyl)oxy)-1-oxoisoindolin-2-yl)piperidine-2,6-dione] | 81
O=C1CCC(N2Cc3cc(O[C@H]4CCCC[C@@H]4N4CCCCC4)ccc3C2=O)C(=O)N1 (stereo partly drawn) [I-97, 3-(1-oxo-5-(((1S,2S)-2-(piperidin-1-yl)cyclohexyl)oxy)isoindolin-2-yl)piperidine-2,6-dione] | 36
O=C1CCC(N2Cc3cc(O[C@H]4CCCC[C@@H]4NCC4CCOCC4)ccc3C2=O)C(=O)N1 (stereo partly drawn) [I-98, 3-(1-oxo-5-(((1S,2S)-2-(((tetrahydro-2H-pyran-4-yl)methyl)amino)cyclohexyl)oxy)isoindolin-2-yl)piperidine-2,6-dione] | 80
CO[C@H]1CC[C@H](CN[C@H]2CCCC[C@@H]2Oc2ccc3c(c2)CN(C2CCC(=O)NC2=O)C3=O)CC1 (stereo partly drawn) [I-101, 3-(5-(((1S,2S)-2-((((1r,4S)-4-methoxycyclohexyl)methyl)amino)cyclohexyl)oxy)-1-oxoisoindolin-2-yl)piperidine-2,6-dione] | 73
CC1(CN[C@H]2CCCC[C@@H]2Oc2ccc3c(c2)CN(C2CCC(=O)NC2=O)C3=O)CCOCC1 (stereo partly drawn) [I-102, 3-(5-(((1S,2S)-2-(((4-methyltetrahydro-2H-pyran-4-yl)methyl)amino)cyclohexyl)oxy)-1-oxoisoindolin-2-yl)piperidine-2,6-dione] | 73
O=C1CCC(N2Cc3cc(O[C@H]4CCCC[C@@H]4NCc4cncnc4)ccc3C2=O)C(=O)N1 (stereo partly drawn) [I-103, 3-(1-oxo-5-(((1S,2S)-2-((pyrimidin-5-ylmethyl)amino)cyclohexyl)oxy)isoindolin-2-yl)piperidine-2,6-dione] | 54
O=C1CCC(N2Cc3cc(O[C@H]4CCCC[C@@H]4NCCC4CCOCC4)ccc3C2=O)C(=O)N1 (stereo partly drawn) [I-104, 3-(1-oxo-5-(((1S,2S)-2-((2-(tetrahydro-2H-pyran-4-yl)ethyl)amino)cyclohexyl)oxy)isoindolin-2-yl)piperidine-2,6-dione] | 87
O=C1CCC(N2Cc3cc(O[C@H]4CCCC[C@@H]4N4CCC5(CC4)COC5)ccc3C2=O)C(=O)N1 (stereo partly drawn) [I-105, 3-(5-(((1S,2S)-2-(2-oxa-7-azaspiro[3.5]nonan-7-yl)cyclohexyl)oxy)-1-oxoisoindolin-2-yl)piperidine-2,6-dione] | 52
COC1(CN[C@H]2CCCC[C@@H]2Oc2ccc3c(c2)CN(C2CCC(=O)NC2=O)C3=O)CCOCC1 (stereo partly drawn) [I-106, 3-(5-(((1S,2S)-2-(((4-methoxytetrahydro-2H-pyran-4-yl)methyl)amino)cyclohexyl)oxy)-1-oxoisoindolin-2-yl)piperidine-2,6-dione] | 51
CC1(C)CC(CN[C@H]2CCCC[C@@H]2Oc2ccc3c(c2)CN(C2CCC(=O)NC2=O)C3=O)CCO1 (stereo partly drawn) [I-107, 3-(5-(((1S,2S)-2-(((2,2-dimethyltetrahydro-2H-pyran-4-yl)methyl)amino)cyclohexyl)oxy)-1-oxoisoindolin-2-yl)piperidine-2,6-dione] | 89
O=C1CCC(N2Cc3cc(O[C@H]4CCCC[C@@H]4NC4CC5(CCOCC5)C4)ccc3C2=O)C(=O)N1 (stereo partly drawn) [I-110, 3-(5-(((1S,2S)-2-((7-oxaspiro[3.5]nonan-2-yl)amino)cyclohexyl)oxy)-1-oxoisoindolin-2-yl)piperidine-2,6-dione] | 89
N#CC1(CN[C@H]2CCCC[C@@H]2Oc2ccc3c(c2)CN(C2CCC(=O)NC2=O)C3=O)CCC1 (stereo partly drawn) [I-111, 1-((((1S,2S)-2-((2-(2,6-dioxopiperidin-3-yl)-1-oxoisoindolin-5-yl)oxy)cyclohexyl)amino)methyl)cyclobutane-1-carbonitrile] | 59

Same assay, conditions: 24 h, read-out: IKZF2 % protein reduction at 10 μM, 24 h

Compound | IKZF2 % protein reduction at 10 µM [%]
CCn1cc(CN[C@H]2CCCC[C@@H]2Oc2ccc3c(c2)CN(C2CCC(=O)NC2=O)C3=O)cn1 (stereo partly drawn) [I-76, 3-(5-(((1S,2S)-2-(((1-ethyl-1H-pyrazol-4-yl)methyl)amino)cyclohexyl)oxy)-1-oxoisoindolin-2-yl)piperidine-2,6-dione] | 79
Cc1cccc(CN[C@H]2CCCC[C@@H]2Oc2ccc3c(c2)CN(C2CCC(=O)NC2=O)C3=O)n1 (stereo partly drawn) [I-90, 3-(5-(((1S,2S)-2-(((6-methylpyridin-2-yl)methyl)amino)cyclohexyl)oxy)-1-oxoisoindolin-2-yl)piperidine-2,6-dione] | 57
